IC50, Animals and Paw swelling data for 2 compounds are collected here from ChEMBL document CHEMBL1129930, “Analogues of methotrexate in rheumatoid arthritis. 2. Effects of 5-deazaaminopterin, 5,10-dideazaaminopterin, and analogues on type II collagen-induced arthritis in mice” (J Med Chem, 1997).

The nature of experiment [1]: Concentration required to inhibit the growth of chang liver cells. The class given is functional. The settings on record: Homo sapiens.
Experiment [2] has as its system L1210. The experiment is described as follows: Concentration required to inhibit the growth of L1210 cells. The conditions noted are these: Mus musculus. The class given is functional, cell-based.
The test system of experiment [3] is Mus musculus. The experiment is described as follows: Incidence of disease (mouse type II collagen) was scored as the percentage of animals within each experimental group that exhibited joint or limb inflammation on day 23 at intraperitoneal dose 6 mg/kg. The format is functional.
Experiment [4] relates to Mus musculus. The experiment is described as follows: Incidence of disease (mouse type II collagen) was scored as the percentage of animals within each experimental group that exhibited joint or limb inflammation on day 23 at intraperitoneal dose 12 mg/kg. The class given is functional.
Experiment [5] deals with Mus musculus. The experiment is described as follows: Incidence of disease (mouse type II collagen) was scored as the percentage of animals within each experimental group that exhibited joint or limb inflammation on day 23 at intraperitoneal dose 18 mg/kg. The format is functional.
Experiment [6] relates to Mus musculus. The experiment is described as follows: Incidence of disease (mouse type II collagen) was scored as the percentage of animals within each experimental group that exhibited joint or limb inflammation on day 30 at intraperitoneal of dose 12 mg/kg. The format is functional.
The subject of experiment [7] is Mus musculus. The experiment is described as follows: Incidence of disease (mouse type II collagen) was scored as the percentage of animals within each experimental group that exhibited joint or limb inflammation on day 30 at intraperitoneal of dose 18 mg/kg. The format is functional.
The subject of experiment [8] is Mus musculus. The experiment is described as follows: Incidence of disease (mouse type II collagen) was scored as the percentage of animals within each experimental group that exhibited joint or limb inflammation on day 30 at intraperitoneal of dose 6 mg/kg. The class given is functional.
Experiment [9] relates to Mus musculus. The experiment is described as follows: Incidence of disease (mouse type II collagen) was scored as the percentage of animals within each experimental group that exhibited joint or limb inflammation on day 37 at intraperitoneal of dose 12 mg/kg. The format is functional.
Experiment [10] concerns Mus musculus. The experiment is described as follows: Incidence of disease (mouse type II collagen) was scored as the percentage of animals within each experimental group that exhibited joint or limb inflammation on day 37 at intraperitoneal of dose 18 mg/kg. The class given is functional.
Experiment [11] has as its system Mus musculus. The experiment is described as follows: Incidence of disease (mouse type II collagen) was scored as the percentage of animals within each experimental group that exhibited joint or limb inflammation on day 37 at intraperitoneal of dose 6 mg/kg. The class given is functional.
The test system of experiment [12] is Mus musculus. The experiment is described as follows: Incidence of disease (mouse type II collagen) was scored as the percentage of animals within each experimental group that exhibited joint or limb inflammation on day 44 at intraperitoneal of dose 12 mg/kg. The format is functional.
The test system of experiment [13] is Mus musculus. The experiment is described as follows: Incidence of disease (mouse type II collagen) was scored as the percentage of animals within each experimental group that exhibited joint or limb inflammation on day 44 at intraperitoneal of dose 18 mg/kg. The class given is functional.
Experiment [14] deals with Mus musculus. The experiment is described as follows: Incidence of disease (mouse type II collagen) was scored as the percentage of animals within each experimental group that exhibited joint or limb inflammation on day 44 at intraperitoneal of dose 6 mg/kg. The class given is functional.
Experiment [15] relates to Mus musculus. The experiment is described as follows: Tested for antiinflammatory activity on mouse type II collagen arthritis as Paw swelling* of all animals in each group on day 44 at intraperitoneal dose of 12 mg/kg. The class given is functional.
In experiment [16] the test system is Mus musculus. The experiment is described as follows: Tested for antiinflammatory activity on mouse type II collagen arthritis as Paw swelling* of all animals in each group on day 44 at intraperitoneal dose of 18 mg/kg. The format is functional.
In experiment [17] the test system is Mus musculus. The experiment is described as follows: Tested for antiinflammatory activity on mouse type II collagen arthritis as Paw swelling* of all animals in each group on day 30 at intraperitoneal dose of 12 mg/kg. The class given is functional.
Experiment [18] has as its system Mus musculus. The experiment is described as follows: Tested for antiinflammatory activity on mouse type II collagen arthritis as Paw swelling* of all animals in each group on day 23 at intraperitoneal dose of 6 mg/kg. The class given is functional.
For experiment [19], the system named is Mus musculus. The experiment is described as follows: Tested for antiinflammatory activity on mouse type II collagen arthritis as Paw swelling* of all animals in each group on day 23 at intraperitoneal dose of 12 mg/kg. The format is functional.
Experiment [20] relates to Mus musculus. The experiment is described as follows: Tested for antiinflammatory activity on mouse type II collagen arthritis as Paw swelling* of all animals in each group on day 23 at intraperitoneal dose of 18 mg/kg. The class given is functional.
Experiment [21] has as its system Mus musculus. The experiment is described as follows: Tested for antiinflammatory activity on mouse type II collagen arthritis as Paw swelling* of all animals in each group on day 30 at intraperitoneal dose of 6 mg/kg. The class given is functional.
Experiment [22] relates to Mus musculus. The experiment is described as follows: Tested for antiinflammatory activity on mouse type II collagen arthritis as Paw swelling* of all animals in each group on day 37 at intraperitoneal dose of 12 mg/kg. The class given is functional.
The subject of experiment [23] is Mus musculus. The experiment is described as follows: Tested for antiinflammatory activity on mouse type II collagen arthritis as Paw swelling* of all animals in each group on day 37 at intraperitoneal dose of 18 mg/kg. The format is functional.
Experiment [24] has as its system Mus musculus. The experiment is described as follows: Tested for antiinflammatory activity on mouse type II collagen arthritis as Paw swelling* of all animals in each group on day 37 at intraperitoneal dose of 6 mg/kg. The format is functional.
For experiment [25], the system named is Mus musculus. The experiment is described as follows: Tested for antiinflammatory activity on mouse type II collagen arthritis as Paw swelling* of all animals in each group on day 44 at intraperitoneal dose of 6 mg/kg. The class given is functional.
The test system of experiment [26] is Mus musculus. The experiment is described as follows: Tested for antiinflammatory activity on mouse type II collagen arthritis as Paw swelling* of all animals in each group on day 30 at intraperitoneal dose of 18 mg/kg. The class given is functional.
The test system of experiment [27] is Mus musculus. The experiment is described as follows: Incidence of disease (mouse type II collagen) was scored as the percentage of animals within each experimental group that exhibited joint or limb inflammation on day 37 at intraperitoneal dose of 4.5 mg/kg. The format is functional.
Experiment [28] has as its system Mus musculus. The experiment is described as follows: Incidence of disease (mouse type II collagen) was scored as the percentage of animals within each experimental group that exhibited joint or limb inflammation on day 30 at intraperitoneal dose of 9 mg/kg. The format is functional.
Experiment [29] has as its system Mus musculus. The experiment is described as follows: Incidence of disease (mouse type II collagen) was scored as the percentage of animals within each experimental group that exhibited joint or limb inflammation on day 23 at intraperitoneal dose of 4.5 mg/kg. The class given is functional.
For experiment [30], the system named is Mus musculus. The experiment is described as follows: Incidence of disease (mouse type II collagen) was scored as the percentage of animals within each experimental group that exhibited joint or limb inflammation on day 23 at intraperitoneal dose of 9 mg/kg. The class given is functional.
For experiment [31], the system named is Mus musculus. The experiment is described as follows: Incidence of disease (mouse type II collagen) was scored as the percentage of animals within each experimental group that exhibited joint or limb inflammation on day 44 at intraperitoneal dose of 4.5 mg/kg. The format is functional.
Experiment [32] has as its system Mus musculus. The experiment is described as follows: Incidence of disease (mouse type II collagen) was scored as the percentage of animals within each experimental group that exhibited joint or limb inflammation on day 30 at intraperitoneal dose of 4.5 mg/kg. The format is functional.
Experiment [33] has as its system Mus musculus. The experiment is described as follows: Incidence of disease (mouse type II collagen) was scored as the percentage of animals within each experimental group that exhibited joint or limb inflammation on day 37 at intraperitoneal dose of 9 mg/kg. The class given is functional.
Experiment [34] deals with Mus musculus. The experiment is described as follows: Incidence of disease (mouse type II collagen) was scored as the percentage of animals within each experimental group that exhibited joint or limb inflammation on day 44 at intraperitoneal dose of 9 mg/kg. The format is functional.
Experiment [35] concerns Mus musculus. The experiment is described as follows: Tested for antiinflammatory activity on mouse type II collagen arthritis as Paw swelling of all animals in each group on day 44 at intraperitoneal dose of 9 mg/kg. The format is functional.
In experiment [36] the test system is Mus musculus. The experiment is described as follows: Tested for antiinflammatory activity on mouse type II collagen arthritis as Paw swelling of all animals in each group on day 30 at intraperitoneal dose of 4.5 mg/kg. The class given is functional.
In experiment [37] the test system is Mus musculus. The experiment is described as follows: Tested for antiinflammatory activity on mouse type II collagen arthritis as Paw swelling of all animals in each group on day 23 at intraperitoneal dose of 4.5 mg/kg. The class given is functional.
For experiment [38], the system named is Mus musculus. The experiment is described as follows: Tested for antiinflammatory activity on mouse type II collagen arthritis as Paw swelling of all animals in each group on day 23 at intraperitoneal dose of 9 mg/kg. The class given is functional.
The subject of experiment [39] is Mus musculus. The experiment is described as follows: Tested for antiinflammatory activity on mouse type II collagen arthritis as Paw swelling of all animals in each group on day 44 at intraperitoneal dose of 4.5 mg/kg. The class given is functional.
Experiment [40] deals with Mus musculus. The experiment is described as follows: Tested for antiinflammatory activity on mouse type II collagen arthritis as Paw swelling of all animals in each group on day 37 at intraperitoneal dose of 4.5 mg/kg. The format is functional.
The subject of experiment [41] is Mus musculus. The experiment is described as follows: Tested for antiinflammatory activity on mouse type II collagen arthritis as Paw swelling of all animals in each group on day 30 at intraperitoneal dose of 9 mg/kg. The class given is functional.
Experiment [42] relates to Mus musculus. The experiment is described as follows: Tested for antiinflammatory activity on mouse type II collagen arthritis as Paw swelling of all animals in each group on day 37 at intraperitoneal dose of 9 mg/kg. The class given is functional.

With `C#CCN(Cc1cnc2nc(N)nc(N)c2c1)c1ccc(C(=O)NC(CCC(=O)O)C(=O)O)cc1` (configuration not stated), the concentration for half-maximal inhibition (IC50) in experiment [1] amounted to 6.3 nM; in [2], 13 nM. The Animals in experiment [3] is reported as 0%; in [4] it was 0%; in experiment [5], 0%; in experiment [6] it was 0%; in experiment [7], 0%; in [8] it was 38%. Also, the Animals in [9] was determined as 50%; in [10], 38%; in [11] it was 88%; in experiment [12], 75%; in experiment [13], 38%; in [14] it was 100%. The Paw swelling in experiment [15] is 2.49 mm; in experiment [16] it was 2.27 mm; in [17], 2.16 mm; in experiment [18], 2.12 mm; in [19] it was 2.17 mm; in experiment [20] it was 2.16 mm. In addition, the Paw swelling in [21] was 2.32 mm; in [22], 2.3 mm; in experiment [23], 2.23 mm; in [24], 2.46 mm; in [25], 2.65 mm; in experiment [26] it was 2.13 mm.
Consider `CCC(Cc1cnc2nc(N)nc(N)c2c1C)c1ccc(C(=O)NC(CCC(=O)O)C(=O)O)cc1` (configuration not stated), for which the Animals in experiment [27] stood at 38%; in experiment [28], 50%; in experiment [29], 0%; in [30], 0%; in experiment [31], 75%; in experiment [32] it was 12%. For the same compound, the Animals in experiment [33] and in experiment [34] was 88% in each case. Besides, the Paw swelling in experiment [35] worked out at 2.99 mm; in experiment [36] it was 2.18 mm; in [37] it was 2.1 mm; in experiment [38], 2.12 mm; in [39] it was 2.68 mm; in experiment [40], 2.32 mm. In addition, the Paw swelling in experiment [41] worked out at 2.45 mm; in [42] it was 3.09 mm.
